This note sets out measurements from BindingDB's records for doi:10.1021/jm020424z (Merck Research Laboratories, 2002).

This test concerns the target Carboxypeptidase A1 (Bos taurus) (UniProt P00730). Nature of the test: The compound was evaluated for the inhibition of Carboxypeptidase A.

Sequence of Carboxypeptidase A1 (Bos taurus) (P00730 whole entry, looked up): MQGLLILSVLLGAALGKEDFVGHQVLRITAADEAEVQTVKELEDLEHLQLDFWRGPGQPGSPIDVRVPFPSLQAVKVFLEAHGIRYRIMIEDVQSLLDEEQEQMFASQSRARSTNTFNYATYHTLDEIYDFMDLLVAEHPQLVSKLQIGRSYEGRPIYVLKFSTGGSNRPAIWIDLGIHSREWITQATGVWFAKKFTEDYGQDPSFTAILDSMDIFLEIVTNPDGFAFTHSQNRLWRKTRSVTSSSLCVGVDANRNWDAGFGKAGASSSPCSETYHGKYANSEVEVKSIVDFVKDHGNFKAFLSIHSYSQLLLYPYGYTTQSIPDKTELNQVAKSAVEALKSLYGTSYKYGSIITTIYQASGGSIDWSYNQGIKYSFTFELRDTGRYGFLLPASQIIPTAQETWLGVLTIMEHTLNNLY

Take `O=C(O)C[C@@H](Cc1ccccc1)C(=O)O` [2-benzylbutanedioic acid]: the Ki was 450 nM.
With `O=C(O)CCC(Cc1ccccc1)C(=O)O` (configuration not stated) [2-Benzyl-pentanedioic acid], the Ki came to 5000 nM.

Usually Ki stands for a dissociation constant, usually derived from enzyme kinetics or from competition with a known ligand.
